Measurements taken from US6852735B1, “Siastatin B derivatives having a glycosidase inhibitory activity and processes for producing the same” (Zaidan Hojin Biseibutsu Kagaku Kenkyu Kai, priority 1998, dated 2005).

Key:
Type in all cases: biochemical
[1] = system: α-D-galactosidase (from Aspergillus niger); assay: α-galactosidase inhibition (Test Example 3); conditions: for 50% inhibiory concentration (IC50) Enzyme C: α-D-galactosidase from Aspergillus niger, substrate p-nitrophenyl-α-D-galactoside
Protocol: (§1) Thus, 0.5 mL of 0.025M citrate-phosphate buffer (pH 4.0), 0.1 mL of the same buffer containing 10 mM p-nitro-phenyl-N-acetyl-α-D-galactosaminide dissolved therein, and 0.1 mL of either water or an aqueous solution containing as the test compound any one of the compounds of the formulae (I), (V) and (X) according to this invention were mixed with each other and pre-incubated in a 96-wells titer plate at 37° C. for 10 minutes. After the completion of the pre-incubation, to the pre-incubated mixture was added 0.01 mL of 0.025 M citrate-phosphate buffer containing α-N-acetyl-galactosaminidase originated from chicken liver (a product of Sigma Company) which was dissolved in said buffer as a glycosidase to be tested. Thereafter, the enzymatic reaction was conducted at 37° C. for 30 minutes.
(§2) After the enzymatic reaction, to the reaction solution was added 1.0 mL of 0.3M glycine—sodium hydroxide buffer (pH 10.5), in order to terminate the enzymatic reaction. Thereafter, the absorbance [designated as value (a)] of light at 405 nm of the resulting reaction solution was measured. Concurrently, measurement was made of the absorbance [designated as value (b)] at 405 nm of the reaction solution as obtained in the control test where the enzymatic reaction was conducted without addition of the test compound. Further, measurements were made of the absorbance [designated as values (a′)] and the absorbance [[designated as values (b′)] at 405 nm of the solutions as obtained in the blank test and the control test, respectively, where the enzymatic reaction was not conducted in the assay test. The rate of inhibition to […] was calculated by the equation: [1-(a-a′)/(b-b′)]×100.
(§3) The test results obtained are summarized as IC50 value in Table 1 below.
This Test Example is a test example for determining the α-galactosidase or β-galactosidase-inhibitory activity of the compound of the formula (I), (V) or (X) according to this invention.
The evaluation of the α-galactosidase or β-galactosidase-inhibitory activity was conducted according to a modification of the method described in the “Journal of Biological Chemistry”, 240, p.2468 (1965).
Namely, the test was conducted in the same manner as the test for the enzyme-inhibitory activity described in Test Example 1, but with using α-galactosidase or β-galactosidase (products of by Sigma Company) originated from Aspergillus niger, as the glycosidase enzyme, and with using p-nitrophenyl-α-D-galactoside and p-nitrophenyl-β-D-galactoside as the substrate. Furthermore, absorbances of light at 405 nm were measured in the same manner as in Test Example 1. IC50 values of the test compound capable of giving the 50% inhibition to the enzymes were calculated.

[2] = system: β-N-acetylglucosaminidase (from bovine epididymis); assay: β-N-acetylglucosaminidase inhibition (Test Example 2); conditions: for inhibition of N-acetylglucosaminidase, in words: summary of Table 1; for 50% inhibiory concentration (IC50) Enzyme B: β-N-acetylglucosaminidase from bovine epididymis, substrate p-nitrophenyl-N-acetyl-β-D-glucosaminide
Protocol: as §1, §2, §3
This Test Example is a test example for determining the N-acetylglucosaminidase-inhibitory activity of the compound of the formula (I), (V) or (X) according to this invention.
The evaluation of the N-acetylglucosaminidase-inhibitory activity was conducted according to a modification of the method described in the “Methods in Enzymology”, 28, p.772 (1972).
Namely, the test was conducted in the same manner as the test for the N-acetylgalactosamnidase-inhibitory activity as described above, but with using […] (a product of Sigma Company) originated from bovine epididymis, as the glycosidase enzyme to be tested, and with using p-nitrophenyl-N-acetyl-β-D-glucosaminide as the substrate. Furthermore, absorbances of light at 405 nm were measured in the same manner as described in […]. IC50 value of the test compound capable of giving the 50% inhibition to β-N-acetyl-glucosaminidase was calculated.

[3] = molecular target: T1, α-D-mannosidase (from jack bean) (Canavalia ensiformis, UniProt C0HJB3); assay: α-mannosidase inhibition (Test Example 5); conditions: for IC50: α-D-mannosidase from jack bean, substrate p-nitrophenyl-α-D-mannoside, sodium acetate buffer pH 4.5, read-out: 50% inhibiory concentration (IC50) Enzyme G (converted); for inhibition of α-D-mannosidase, in words: summary of Table 1
T1 sequence (C0HJB3 1-981): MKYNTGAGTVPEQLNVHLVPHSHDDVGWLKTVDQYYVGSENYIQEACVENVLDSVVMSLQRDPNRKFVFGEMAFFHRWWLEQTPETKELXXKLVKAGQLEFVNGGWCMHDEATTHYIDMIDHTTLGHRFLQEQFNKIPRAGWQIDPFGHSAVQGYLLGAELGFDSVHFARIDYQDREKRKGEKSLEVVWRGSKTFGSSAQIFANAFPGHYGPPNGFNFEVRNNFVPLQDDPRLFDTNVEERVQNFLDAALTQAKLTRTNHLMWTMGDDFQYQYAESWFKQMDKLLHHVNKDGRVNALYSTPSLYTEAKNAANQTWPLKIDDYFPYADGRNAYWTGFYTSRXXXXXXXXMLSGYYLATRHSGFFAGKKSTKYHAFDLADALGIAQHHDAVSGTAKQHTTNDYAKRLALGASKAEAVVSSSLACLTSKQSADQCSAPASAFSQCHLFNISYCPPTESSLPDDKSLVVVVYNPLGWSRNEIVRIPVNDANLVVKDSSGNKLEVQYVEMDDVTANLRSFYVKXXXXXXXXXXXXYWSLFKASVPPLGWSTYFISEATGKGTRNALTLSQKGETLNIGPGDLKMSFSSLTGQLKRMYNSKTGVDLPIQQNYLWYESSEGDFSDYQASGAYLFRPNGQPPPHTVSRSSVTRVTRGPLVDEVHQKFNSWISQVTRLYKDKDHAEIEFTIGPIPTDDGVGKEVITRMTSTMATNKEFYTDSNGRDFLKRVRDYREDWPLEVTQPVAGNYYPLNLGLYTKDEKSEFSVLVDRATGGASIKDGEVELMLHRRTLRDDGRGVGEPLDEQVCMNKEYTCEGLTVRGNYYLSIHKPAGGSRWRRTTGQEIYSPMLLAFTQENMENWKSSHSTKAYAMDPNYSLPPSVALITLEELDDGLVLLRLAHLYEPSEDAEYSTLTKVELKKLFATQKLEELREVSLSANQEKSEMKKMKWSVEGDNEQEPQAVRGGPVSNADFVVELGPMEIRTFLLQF
Protocol: as §1, §2, §3
(§4) This Test Example is a test example for determining the α-mannosidase or β-mannosidase-inhibitory activity of the compounds according to this invention.
(§5) The evaluation of the β-mannosidase-inhibitory activity was conducted according to a modification of the method described in the “Journal of Biological Chemistry”, 242, p.5474 (1967).
(§6) Namely, the test was conducted in the same manner as the test for the enzyme-inhibitory activity test described in Test Example 1, but with using α-mannosidase from jack bean or β-mannosidase from snail (both enzymes are products of Sigma Company) as the glycosidase enzyme, with using 0.05 M sodium acetate—acetate buffer (pH 4.5) as the buffer, and with using p-nitrophenyl-α-D-mannoside or p-nitrophenyl-β-D-mannoside as the substrate. Furthermore, absorbances of light were measured in the same manner as in Test Example 1. IC50 values of the test compound capable of giving the 50% inhibition to the enzymes were calculated.

[4] = system: β-D-mannosidase (from snail); assay: β-mannosidase inhibition (Test Example 5); conditions: for inhibition of β-D-mannosidase, in words: summary of Table 1; for 50% inhibiory concentration (IC50) Enzyme F: β-D-mannosidase from snail, substrate p-nitrophenyl-β-D-mannoside, sodium acetate buffer pH 4.5
Protocol: as §1, §2, §3, §4, §5, §6

| Compound | inhibition of α-D-galactosidase, in words ([1]; summary of Table 1) | 50% inhibiory concentration (IC50) Enzyme C [1] [µg/mL] | inhibition of N-acetylglucosaminidase, in words [2] | 50% inhibiory concentration (IC50) Enzyme B [2] [µg/mL] | IC50 [3] [µM] | inhibition of β-D-mannosidase, in words [4] | 50% inhibiory concentration (IC50) Enzyme F [4] [µg/mL] | inhibition of α-D-mannosidase, in words [3] |
| --- | --- | --- | --- | --- | --- | --- | --- | --- |
| O=C(N[C@H]1NC[C@H](CO)[C@H](O)[C@@H]1O)C(F)(F)F [Formula (I), 6-deacetamido-3-decarboxy-3-hydroxymethyl-6-trifluoroacetamido-siastain B] | inhibit strongly | 0.1 | inhibit strongly | 22 | > 387 | inhibit strongly | 38 | – |
| CC(=O)NC1NCC(CO)C(O)C1O (stereo not drawn) [Formula (V), 3-decarboxy-4-epi-3-hydroxymethyl-siastain B] | – | >100 | inhibit strongly | 3 | 318 | inhibit strongly | 10 | inhibit strongly |
| O=C(N[C@H]1NC[C@H](CO)[C@@H](O)[C@@H]1O)C(F)(F)F [Formula (X), 6-deacetamido-3-decarboxy-4-epi-3-hydroxymethyl-6-trifluoroacetamido-siastain B] | – | >100 | – | >100 | 2.9 | inhibit strongly | 1 | inhibit strongly |
